pIC50: −log10 of the molar value. Like-named read-outs stand apart in the source and are kept apart here.
Molecular target: Human Factor D (Homo sapiens (Human), UniProt P00746)
Experiment: Human Factor D Assay
Type: biochemical
Outline: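 Serum-purified human Factor D (80 nM final) was preincubated with test compound at various concentrations for 5 min at room temperature in 50 mM Tris, 1M NaCl, pH 7.5. Z-L-Lys-SBzl and DTNB were then added at 100 μM each. IC50 came from nonlinear regression of reaction rates versus compound concentration.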

[1] = Table 3, Human Factor D 80 nM, substrate Z-L-Lys-SBzl, read-out: IC50 (Stars)
[2] = Human Factor D, Table 3, read-out: IC50
[3] = Human Factor D 80 nM, substrate Z-L-Lys-SBzl, read-out: IC50
[4] = Human Factor D assay of Example 8, Table 2, read-out: IC50

Sequence of Human Factor D (P00746 26-253): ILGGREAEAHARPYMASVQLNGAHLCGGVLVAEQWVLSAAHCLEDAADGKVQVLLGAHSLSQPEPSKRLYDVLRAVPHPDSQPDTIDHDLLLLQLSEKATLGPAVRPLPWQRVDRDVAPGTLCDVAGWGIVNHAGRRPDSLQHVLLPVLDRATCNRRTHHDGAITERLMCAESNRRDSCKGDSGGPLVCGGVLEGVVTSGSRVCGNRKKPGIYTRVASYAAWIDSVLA

CNc1ncc(-c2ccc3c(c2)c(C(C)=O)nn3CC(=O)N2[C@@H]3C[C@@H]3C[C@H]2C(=O)Nc2cncc(Br)n2)cn1 [Compound 379, (1R,3S,5R)-2-(2-(3-Acetyl-5-(2-(methylamino)pyrimidin-5-yl)-1H-indazol-1-yl)acetyl)-N-(6-bromopyrazin-2-yl)-2-azabicyclo[3.1.0]hexane-3-carboxamide]
pIC50 [1]: > 6.00

CC(=O)c1nn(CC(=O)N2[C@H](C(=O)Nc3cccc(Br)n3)C[C@@]3(C)C[C@@H]23)c2ccc(-c3cnc(N)nc3)cc12 [Compound 480, (1R,3S,5R)-2-(2-(3-Acetyl-5-(2-aminopyrimidin-5-yl)-1H-indazol-1-yl)acetyl)-N-(6-bromopyridin-2-yl)-5-methyl-2-azabicyclo[3.1.0]hexane-3-carboxamide]
pIC50 [1]: > 6.00

CC(=O)c1nn(CC(=O)N2[C@@H]3C[C@@H]3C[C@H]2C(=O)Nc2cccc(OC(F)(F)F)n2)c2ccc(-c3cnc4cc(C)nn4c3)cc12 [Compound 670, (1R,3S,5R)-2-(2-(3-Acetyl-5-(2-methylpyrazolo[1,5-a]pyrimidin-6-yl)-1H-indazol-1-yl)acetyl)-N-(6-(trifluoromethoxy)pyridin-2-yl)-2-azabicyclo[3.1.0]hexane-3-carboxamide]
pIC50 [2]: > 6.00

NC(=O)c1nn(CC(=O)N2C[C@H](F)C[C@H]2C(=O)Nc2ccccc2-c2nc3ccccc3s2)c2ccc(-c3ccnnc3)cc12 [Compound 41, 1-(2-((2S,4R)-2-(2-(benzo[d]thiazol-2-yl)phenylcarbamoyl)-4-fluoropyrrolidin-1-yl)-2-oxoethyl)-5-(pyridazin-4-yl)-1H-indazole-3-carboxamide]
pIC50 [3]: < 5.00

CC(=O)c1nn(CC(=O)N2C[C@H](F)C[C@H]2C(=O)Nc2cccc(Br)n2)c2cc(C(=O)N(C)C)c(-c3cnc(C)nc3)cc12 [Compound 362, 3-acetyl-1-(2-((2S,4R)-2-((6-bromopyridin-2-yl)carbamoyl)-4-fluoropyrrolidin-1-yl)-2-oxoethyl)-N,N-dimethyl-5-(2-methylpyrimidin-5-yl)-1H-indazole-6-carboxamide]
pIC50 [1]: > 6.00

CC(=O)c1nn(CC(=O)N2CCC[C@H]2C(=O)Nc2cccc(Br)n2)c2ccc(-c3cnc(C)nc3)cc12 [Compound 230, (S)-1-(2-(3-Acetyl-5-(2-methylpyrimidin-5-yl)-1H-indazol-1-yl)acetyl)-N-(6-bromopyridin-2-yl)pyrrolidine-2-carboxamide]
pIC50 [4]: > 6.00

CNC(=O)c1nn(CC(=O)N2C[C@H](F)C[C@H]2C(=O)Nc2cccc(Br)n2)c2ccc(-c3cnc(C)nc3)cc12 [Compound 424, 1-(2-((2S,4R)-2-((6-Bromopyridin-2-yl)carbamoyl)-4-fluoropyrrolidin-1-yl)-2-oxoethyl)-N-methyl-5-(2-methylpyrimidin-5-yl)-1H-indazole-3-carboxamide]
pIC50 [1]: > 6.00

CC(=O)c1nn(CC(=O)N2C[C@H](F)C[C@H]2C(=O)NC2CCCC(C)(C)C2)c2ccc(-c3cnc(C)nc3)cc12 (stereo partly drawn) [Compound 464, (2S,4R)-1-(2-(3-acetyl-5-(2-methylpyrimidin-5-yl)-1H-indazol-1-yl)acetyl)-N-(3,3-dimethylcyclohexyl)-4-fluoropyrrolidine-2-carboxamide]
pIC50 [1]: > 6.00

CC(=O)c1nn(CC(=O)N2CSC[C@H]2C(=O)Nc2cccc(Br)n2)c2ccc(-c3cnc(C)nc3)cc12 [Compound 312, (R)-3-(2-(3-acetyl-5-(2-methylpyrimidin-5-yl)-1H-indazol-1-yl)acetyl)-N-(6-bromopyridin-2-yl)thiazolidine-4-carboxamide]
pIC50 [4]: > 6.00

CC(=O)c1nn(CC(=O)N2C[C@H](F)C[C@H]2C(=O)Nc2cccc(Br)n2)c2ccc(-c3cn[nH]c3)cc12 [Compound 707, (2S,4R)-1-(2-(3-acetyl-5-(1H-pyrazol-4-yl)-1H-indazol-1-yl)acetyl)-N-(6-bromopyridin-2-yl)-4-fluoropyrrolidine-2-carboxamide]
pIC50 [2]: > 6.00

NC(=O)c1nn(CC(=O)N2C[C@H](F)C[C@H]2C(=O)Nc2cccc(Cl)c2-n2cncn2)c2ccc(-c3ccnnc3)cc12 [Compound 96, 1-(2-((2S,4R)-2-(3-chloro-2-(1H-1,2,4-triazol-1-yl)phenylcarbamoyl)-4-fluoropyrrolidin-1-yl)-2-oxoethyl)-5-(pyridazin-4-yl)-1H-indazole-3-carboxamide]
pIC50 [3]: < 5.00

CC(=O)c1cn(CC(=O)N2C[C@H](F)C[C@H]2C(=O)Nc2ccc(F)c(-c3nnc4n3CCCCC4)c2)c2ccc(-c3ccnnc3)cc12 [Compound 92, (2S,4R)-1-(2-(3-acetyl-5-(pyridazin-4-yl)-1H-indol-1-yl)acetyl)-4-fluoro-N-(4-fluoro-3-(6,7,8,9-tetrahydro-5H-[1,2,4]triazolo[4,3-a]azepin-3-yl)phenyl) pyrrolidine-2-carboxamide]
pIC50 [3]: > 6.00

CC(=O)c1nn(CC(=O)N2C[C@H](F)C[C@H]2C(=O)Nc2cccc(Br)n2)c2ccc(-c3cnc(NS(C)(=O)=O)nc3)cc12 [Compound 556, (2S,4R)-1-(2-(3-Acetyl-5-(2-(methylsulfonamido)pyrimidin-5-yl)-1H-indazol-1-yl)acetyl)-N-(6-bromopyridin-2-yl)-4-fluoropyrrolidine-2-carboxamide]
pIC50 [2]: > 6.00

CC(=O)N[C@@H]1CN(C(=O)Cn2nc(C(C)=O)c3cc(-c4cnc(C)nc4)ccc32)[C@H](C(=O)Nc2cccc(Br)n2)[C@H]1F [Compound 513, (2R,3S,4R)-4-Acetamido-1-(2-(3-acetyl-5-(2-methylpyrimidin-5-yl)-1H-indazol-1-yl)acetyl)-N-(6-bromopyridin-2-yl)-3-fluoropyrrolidine-2-carboxamide]
pIC50 [1]: > 6.00

Cc1cccc(NC(=O)[C@@H]2[C@H]3CC[C@H](C3)N2C(=O)Cn2cc(C(N)=O)c3cc(-c4cccc(C#N)c4)ccc32)n1 [Compound 497, 5-(3-Cyanophenyl)-1-(2-((1R,3S,4S)-3-(6-methylpyridin-2-ylcarbamoyl)-2-azabicyclo[2.2.1]heptan-2-yl)-2-oxoethyl)-1H-indole-3-carboxamide]
pIC50 [1]: < 5.00

NC(=O)c1nn(CC(=O)N2[C@@H]3C[C@@H]3C[C@H]2C(=O)Nc2cccc(-c3ccccc3Cl)c2F)c2ccc(-c3ncccn3)cc12 [Compound 7, 1-(2-((1R,3S,5R)-3-(2′-chloro-2-fluorobiphenyl-3-ylcarbamoyl)-2-azabicyclo[3.1.0]hexan-2-yl)-2-oxoethyl)-5-(pyrimidin-2-yl)-1H-indazole-3-carboxamide]
pIC50 [3]: > 6.00

CC(=O)c1nn(CC(=O)N2C[C@H](F)C[C@H]2C(=O)Nc2ccc(F)c(Br)c2)c2ccc(-c3cnc(C)nc3)cc12 [Compound 509, (2S,4R)-1-(2-(3-Acetyl-5-(2-methylpyrimidin-5-yl)-1H-indazol-1-yl)acetyl)-N-(3-bromo-4-fluorophenyl)-4-fluoropyrrolidine-2-carboxamide]
pIC50 [1]: > 6.00

CC(=O)c1nn(CC(=O)N2C[C@H](F)C[C@H]2C(=O)Nc2cccc(Br)n2)c2ccc(-c3cnc(C)nc3C)cc12 [Compound 266, (2S,4R)-1-(2-(3-acetyl-5-(2,4-dimethylpyrimidin-5-yl)-1H-indazol-1-yl)acetyl)-N-(6-bromopyridin-2-yl)-4-fluoropyrrolidine-2-carboxamide]
pIC50 [4]: > 6.00

CC(=O)c1nn(CC(=O)N2C[C@H](F)C[C@H]2C(=O)Nc2cccc(Br)n2)c2ccc(-c3cnc(-n4cccn4)nc3)cc12 [Compound 522, (2S,4R)-1-(2-(5-(2-(1H-Pyrazol-1-yl)pyrimidin-5-yl)-3-acetyl-1H-indazol-1-yl)acetyl)-N-(6-bromopyridin-2-yl)-4-fluoropyrrolidine-2-carboxamide]
pIC50 [1]: > 6.00

CNC(=O)[C@@H]1C[C@@H](F)CN1C(=O)Cn1nc(C(N)=O)c2cc(-c3ccnnc3)ccc21 [Compound 79, 1-(2-((2S,4R)-4-fluoro-2-(methylcarbamoyl)pyrrolidin-1-yl)-2-oxoethyl)-5-(pyridazin-4-yl)-1H-indazole-3-carboxamide]
pIC50 [3]: < 5.00

CC(=O)c1nn(CC(=O)N2C[C@H](F)C[C@H]2c2nc(-c3cccc(Br)n3)c[nH]2)c2ccc(-c3cnc(C)nc3)cc12 [Compound 469, 2-(3-acetyl-5-(2-Methylpyrimidin-5-yl)-1H-indazol-1-yl)-1-((2S,4R)-2-(4-(6-bromopyridin-2-yl)-1H-imidazol-2-yl)-4-fluoropyrrolidin-1-yl)ethan-1-one]
pIC50 [1]: > 6.00

NC(=O)c1nn(CC(=O)N2C[C@H](F)C[C@H]2C(=O)Nc2cccc(Br)n2)cc1-c1cnn(C2CC2)c1 [Compound 726, 1-(2-((2S,4R)-2-((6-Bromopyridin-2-yl)carbamoyl)-4-fluoropyrrolidin-1-yl)-2-oxoethyl)-1′-cyclopropyl-1H,1′H-[4,4′-bipyrazole]-3-carboxamide]
pIC50 [2]: < 5.00

CC(=O)c1nn(CC(=O)N2C[C@H](F)C[C@H]2C(=O)Nc2cccc(-c3cc(S(N)(=O)=O)ccc3Cl)c2F)c2ccc(-c3cnc(C)nc3)cc12 [Compound 341, (2S,4R)-1-(2-(3-Acetyl-5-(2-methylpyrimidin-5-yl)-1H-indazol-1-yl)acetyl)-N-(2′-chloro-2-fluoro-5′-sulfamoyl-[1,1′-biphenyl]-3-yl)-4-fluoropyrrolidine-2-carboxamide]
pIC50 [1]: > 6.00

CC(=O)c1cn(CC(=O)N2C[C@H](F)C[C@H]2C(=O)Nc2cccc(-c3ccccc3Cl)c2F)c2ccc(C3=CCN(C(C)=O)CC3)cc12 [Compound 28, (2S,4R)-1-(2-(3-Acetyl-5-(1-acetyl-1,2,3,6-tetrahydropyridin-4-yl)-1H-indol-1-yl)acetyl)-N-(2′-chloro-2-fluoro-[1,1′-biphenyl]-3-yl)-4-fluoropyrrolidine-2-carboxamide]
pIC50 [3]: > 6.00

CC(=O)c1nn(CC(=O)N2C[C@H](F)C[C@H]2C(=O)Nc2cnc(C)c(Br)n2)c2ccc(-c3cnc4cc(C5CC5)nn4c3)cc12 [Compound 675, (2S,4R)-1-(2-(3-Acetyl-5-(2-cyclopropylpyrazolo[1,5-a]pyrimidin-6-yl)-1H-indazol-1-yl)acetyl)-N-(6-bromo-5-methylpyrazin-2-yl)-4-fluoropyrrolidine-2-carboxamide]
pIC50 [2]: > 6.00

Reference: US10287301B2 (Achillion Pharmaceuticals, Inc., priority 2015, dated 2019)
